What was measured:
[1] = Oral bioavailability in dog; format: ADME, organism-based, Canis lupus familiaris; conditions: in vivo
[2] = Oral bioavailability in monkey; format: ADME, organism-based, Macaca mulatta; conditions: rhesus monkey, in vivo
in vitro = conditions: PAMPA, pH 6.5
in vivo [3] = conditions: dog, iv, 1 mg/mL
[4] = Cmax in dog at […], po by cassette assay; format: ADME, organism-based, Canis lupus familiaris; design: route oral; conditions: in vivo
[5] = AUC (0 to 24 hrs) in dog at […], po by cassette assay; format: ADME, organism-based, Canis lupus familiaris; design: time < 24 hr, route oral; conditions: plasma
[6] = Bioavailability in dog at […], po by cassette assay; format: ADME, organism-based, Canis lupus familiaris; conditions: in vivo
in vivo [7] = conditions: dog, iv, 1 mg/mL; remark: listed apart in the source
[8] = Cmax in monkey at 0.32 mg/kg, po by cassette assay; format: ADME, organism-based, Macaca mulatta; design: dose 0.32 mg/kg, route oral; conditions: rhesus monkey, in vivo
[9] = Intrinsic clearance in monkey liver microsome; format: ADME, Macaca mulatta; conditions: rhesus monkey, liver microsomes
[10] = Intrinsic clearance in human liver microsome; format: ADME; conditions: liver microsomes
Rhesus monkey [11] = test: (§1) Bioavailability in monkey at 0.32 mg/kg, po by cassette assay; format: ADME, organism-based, Macaca mulatta; conditions: in vivo
[12] = Cmax in rat at 0.32 mg/kg, po by cassette assay; format: ADME, organism-based; design: dose 0.32 mg/kg, route oral; conditions: in vivo
[13] = Total clearance in rat at 0.32 mg/kg, iv by cassette assay; format: ADME, organism-based; design: dose 0.32 mg/kg, route intravenous; conditions: in vivo
[14] = Terminal half life in monkey at 0.186 mg/kg, iv by cassette assay; format: ADME, organism-based, Macaca mulatta; design: dose 0.186 mg/kg, route intravenous; conditions: rhesus monkey, in vivo, read-out: beta t1/2 (converted)
[15] = Bioavailability in dog at 0.2 mg/kg, po by cassette assay; format: ADME, organism-based, Canis lupus familiaris; conditions: in vivo
[16] = Terminal half life in rat at 0.32 mg/kg, iv by cassette assay; format: ADME, organism-based; design: dose 0.32 mg/kg, route intravenous; conditions: in vivo, read-out: beta t1/2 (converted)
[17] = AUC (0 to 24 hrs) in dog at 2.0 mg/kg, po by cassette assay; format: ADME, organism-based, Canis lupus familiaris; design: time < 24 hr, dose 2 mg/kg, route oral; conditions: plasma
[18] = Terminal half life in dog at 0.1 mg/kg, iv by cassette assay; format: ADME, organism-based, Canis lupus familiaris; design: dose 0.1 mg/kg, route intravenous; conditions: in vivo, read-out: beta t1/2 (converted)
Rhesus monkey [19] = test: (§2) AUC (0 to 24 hrs) in monkey at 0.32 mg/kg, po by cassette assay; format: ADME, organism-based, Macaca mulatta, Plasma; design: time < 24 hr, dose 0.32 mg/kg, route oral; conditions: in vivo, 24 h
[20] = Total clearance in dog at 0.1 mg/kg, iv by cassette assay; format: ADME, organism-based, Canis lupus familiaris; design: dose 0.1 mg/kg, route intravenous; conditions: in vivo
[21] = AUC (0 to 24 hrs) in rat at 0.32 mg/kg, po by cassette assay; format: ADME, organism-based; design: time < 24 hr, dose 0.32 mg/kg, route oral; conditions: plasma
[22] = Bioavailability in rat at 0.32 mg/kg, po by cassette assay; format: ADME, organism-based; conditions: in vivo
[23] = Cmax in dog at 2.0 mg/kg, po by cassette assay; format: ADME, organism-based, Canis lupus familiaris; design: dose 2 mg/kg, route oral; conditions: in vivo
[24] = Cmax in dog at 0.1 mg/kg, po by cassette assay; format: ADME, organism-based, Canis lupus familiaris; design: dose 0.1 mg/kg, route oral; conditions: in vivo
[25] = as §1; format: ADME, organism-based, Macaca mulatta; conditions: rhesus monkey, in vivo
[26] = Intrinsic clearance in dog liver microsome; format: ADME, Canis lupus familiaris; conditions: liver microsomes
[27] = as §2; format: ADME, organism-based, Macaca mulatta, Plasma; design: time < 24 hr, dose 0.32 mg/kg, route oral; conditions: rhesus monkey, plasma
[28] = Terminal half life in monkey at 0.32 mg/kg, iv by cassette assay; format: ADME, organism-based, Macaca mulatta; design: dose 0.32 mg/kg, route intravenous; conditions: rhesus monkey, in vivo, read-out: beta t1/2 (converted)
[29] = Bioavailability in dog at 0.1 mg/kg, po by cassette assay; format: ADME, organism-based, Canis lupus familiaris; conditions: in vivo
[30] = Total clearance in monkey at 0.32 mg/kg, iv by cassette assay; format: ADME, organism-based, Macaca mulatta; design: dose 0.32 mg/kg, route intravenous; conditions: rhesus monkey, in vivo
[31] = AUC (0 to 24 hrs) in dog at 0.1 mg/kg, po by cassette assay; format: ADME, organism-based, Canis lupus familiaris; design: time < 24 hr, dose 0.1 mg/kg, route oral; conditions: plasma
in vivo [32] = conditions: dog, po, 1 mg/mL
in vivo [33] = conditions: dog, plasma, po, 1 mg/mL
in vivo [34] = conditions: dog, po, 1 mg/mL; remark: listed apart in the source
[35] = AUC (0 to 24 hrs) in rat at 1.0 mg/kg, po by cassette assay; format: ADME, organism-based; design: time < 24 hr, dose 1 mg/kg, route oral; conditions: plasma
[36] = Total clearance in dog at 0.83 mg/kg, iv by cassette assay; format: ADME, organism-based, Canis lupus familiaris; design: dose 0.83 mg/kg, route intravenous; conditions: in vivo
[37] = AUC (0 to 24 hrs) […] at 1.0 mg/kg, po by cassette assay; format: ADME, organism-based; design: time < 24 hr, dose 1 mg/kg, route oral; conditions: plasma
[38] = Cmax in rat at 1.0 mg/kg, po by cassette assay; format: ADME, organism-based; design: dose 1 mg/kg, route oral; conditions: in vivo
[39] = AUC (0 to 24 hrs) in monkey at 1.0 mg/kg, po by cassette assay; format: ADME, organism-based, Macaca mulatta; design: time < 24 hr, dose 1 mg/kg, route oral; conditions: rhesus monkey, plasma
[40] = Total clearance in monkey at 0.83 mg/kg, iv by cassette assay; format: ADME, organism-based, Macaca mulatta; design: dose 0.83 mg/kg, route intravenous; conditions: rhesus monkey, in vivo
[41] = Bioavailability in dog at 3.2 mg/kg, po by cassette assay; format: ADME, organism-based, Canis lupus familiaris; conditions: in vivo
[42] = Bioavailability in monkey at 1.0 mg/kg, po by cassette assay; format: ADME, organism-based, Macaca mulatta; conditions: rhesus monkey, in vivo
[43] = Terminal half life in monkey at 0.83 mg/kg, iv by cassette assay; format: ADME, organism-based, Macaca mulatta; design: dose 0.83 mg/kg, route intravenous; conditions: rhesus monkey, in vivo, read-out: beta t1/2 (converted)
[44] = Terminal half life in rat at 0.83 mg/kg, iv by cassette assay; format: ADME, organism-based; design: dose 0.83 mg/kg, route intravenous; conditions: in vivo, read-out: beta t1/2 (converted)
[45] = Cmax in dog at 3.2 mg/kg, po by cassette assay; format: ADME, organism-based, Canis lupus familiaris; design: dose 3.2 mg/kg, route oral; conditions: in vivo
[46] = Cmax in monkey at 1.0 mg/kg, po by cassette assay; format: ADME, organism-based, Macaca mulatta; design: dose 1 mg/kg, route oral; conditions: rhesus monkey, in vivo
[47] = Bioavailability in rat at 1.0 mg/kg, po by cassette assay; format: ADME, organism-based; conditions: in vivo
[48] = AUC (0 to 24 hrs) in dog at 3.2 mg/kg, po by cassette assay; format: ADME, organism-based, Canis lupus familiaris; design: time < 24 hr, dose 3.2 mg/kg, route oral; conditions: plasma
[49] = Terminal half life in dog at 0.83 mg/kg, iv by cassette assay; format: ADME, organism-based, Canis lupus familiaris; design: dose 0.83 mg/kg, route intravenous; conditions: in vivo, read-out: beta t1/2 (converted)
[50] = Total clearance in rat at 0.83 mg/kg, iv by cassette assay; format: ADME, organism-based; design: dose 0.83 mg/kg, route intravenous; conditions: in vivo
[51] = Intrinsic clearance in rat liver microsome; format: ADME; conditions: liver microsomes
[52] = Cmax […] at 1.0 mg/kg, po by cassette assay; format: ADME, organism-based; design: dose 1 mg/kg, route oral; conditions: in vivo

O=S(=O)(Nc1ccc(CCNC[C@H](O)c2cccnc2)cc1)c1ccc(-c2nc(-c3ccc(C(F)(F)F)cc3)cs2)cc1
bioavailability [1]: 27% | bioavailability [2]: 4%

O=C(O)c1ccc(-c2ccc(CCNC[C@H](O)c3cccc(Cl)c3)cc2)cc1OC1CCCCC1
Papp (in vitro): > 30 ×10⁻⁶ cm/s

CC(C)Cc1cc(-c2ccc(CCNC[C@H](O)c3ccccc3)cc2)ccc1C(=O)O
Papp (in vitro): 26 ×10⁻⁶ cm/s

CC(C)Sc1cc(-c2ccc(CCNC[C@H](O)c3ccccc3)cc2)ccc1C(=O)O
Papp (in vitro): 10 ×10⁻⁶ cm/s

O=C(O)c1ccc(-c2ccc(CCNC[C@H](O)c3cccc(Cl)c3)cc2)cc1
half-life (in vivo [3]): 12.3 h | Cmax [4]: 111 ng/mL | AUC(0-t) at 24 h [5]: 1980 ng·h/mL | bioavailability [6]: > 95% | clearance (in vivo [7]): 4 mL/min/kg

CC(C)Oc1cc(-c2ccc(CCNC[C@H](O)c3ccccc3)cc2)ccc1C(=O)O
Cmax [8]: 185 ng/mL | CLint scaled [9]: < 1 mL/min/kg | CLint scaled [10]: < 1 mL/min/kg | F (Rhesus monkey [11]): 62% | Cmax [12]: 94.7 ng/mL | clearance [13]: 7.5 mL/min/kg | half-life [14]: 22.2 h | bioavailability [15]: 68% | half-life [16]: 9.5 h | AUC(0-t) at 24 h [17]: 438 ng·h/mL | half-life [18]: 14.5 h | AUC (Rhesus monkey [19]): 209 ng·h/mL | clearance [20]: 4.8 mL/min/kg | Papp (in vitro): 18 ×10⁻⁶ cm/s | AUC(0-t) at 24 h [21]: 565 ng·h/mL | bioavailability [22]: 80% | Cmax [23]: 25 ng/mL

COc1cc(-c2ccc(CCNC[C@H](O)c3cccc(Cl)c3)cc2)ccc1C(=O)O
Papp (in vitro): 3.3 ×10⁻⁶ cm/s

CC(C)Oc1cc(-c2ccc(CCNC[C@H](O)c3cccc(Cl)c3)cc2)ccc1C(=O)O
Cmax [8]: 171 ng/mL | CLint scaled [10]: < 1 mL/min/kg | Cmax [24]: 13 ng/mL | bioavailability [25]: 83% | Cmax [12]: 146 ng/mL | clearance [13]: 4.4 mL/min/kg | CLint scaled [26]: < 1 mL/min/kg | half-life [16]: 4.8 h | half-life [18]: 9.9 h | AUC(0-t) at 24 h [27]: 4980 ng·h/mL | half-life [28]: 18.6 h | clearance [20]: 4.9 mL/min/kg | Papp (in vitro): > 30 ×10⁻⁶ cm/s | bioavailability [29]: 45% | AUC(0-t) at 24 h [21]: 700 ng·h/mL | bioavailability [22]: 61% | clearance [30]: 0.9 mL/min/kg | AUC(0-t) at 24 h [31]: 149 ng·h/mL

O=C(O)c1ccc(-c2ccc(CCNC[C@H](O)c3ccccc3)cc2)cc1OC1CCCCC1
Papp (in vitro): > 30 ×10⁻⁶ cm/s

O=C(O)c1ccc(Oc2ccc(CCNC[C@H](O)c3cccc(Cl)c3)cc2)cc1
bioavailability (in vivo [32]): 40% | AUC(0-t) at 24 h (in vivo [33]): 2470 ng·h/mL | half-life (in vivo [3]): 6.2 h | Cmax (in vivo [34]): 236 ng/mL | clearance (in vivo [7]): 4.1 mL/min/kg

CCOC(=O)COc1ccc2c(c1)C[C@@H](NC[C@H](O)c1cccc(Cl)c1)CCC2
AUC(0-t) at 24 h [35]: 83 ng·h/mL | CLint scaled [10]: 18.2 mL/min/kg | clearance [36]: 3.7 mL/min/kg | AUC(0-t) at 24 h [37]: 4100 ng·h/mL | Cmax [38]: 38 ng/mL | AUC(0-t) at 24 h [39]: 398 ng·h/mL | clearance [40]: 11.8 mL/min/kg | bioavailability [41]: 73% | bioavailability [42]: 35% | CLint scaled [26]: 35.4 mL/min/kg | half-life [43]: 2.28 h | half-life [44]: 0.3 h | Cmax [45]: 2070 ng/mL | Cmax [46]: 184 ng/mL | bioavailability [47]: 29% | AUC(0-t) at 24 h [48]: 10600 ng·h/mL | half-life [49]: 1.63 h | clearance [50]: 47.9 mL/min/kg | CLint scaled [51]: 35.4 mL/min/kg | Cmax [52]: 1340 ng/mL

O=C(O)c1cccc(-c2cccc(NCCNC[C@H](O)c3cccc(Cl)c3)c2)c1 [SOLABEGRON]
bioavailability [2]: 46%

Source: ChEMBL document CHEMBL1142325, “Discovery of a novel series of biphenyl benzoic acid derivatives as potent and selective human beta3-adrenergic receptor agonists with good oral bioavailability. Part I” (J Med Chem, 2008)
